Test results from the supplement of paper PMC11451515.

Test system: NOMO1
Test: cell viability relative to DMSO control; higher = less cytotoxic
Conditions: 48 h
How it was run: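 Viability was expressed as a per-plate percentage of DMSO wells, with cell-free wells as background. Leukemia cells (NOMO1 or SEM at 500 cells/well, P12-Ichikawa at 1000 cells/well) were adapted for at least four passages in each medium and seeded in 1536-well plates (5 μl). Library compounds in DMSO were pin-dosed over an 11-point threefold series from 47 μM to 0.79 nM, and CellTiter-Glo One luminescence was read after 48 h at 37°C.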

[1] = HPLM + 10% dialyzed FBS, 0.000781 µM
[2] = HPLM + 10% dialyzed FBS, 0.00234 µM
[3] = HPLM + 10% dialyzed FBS, 0.00702 µM
[4] = HPLM + 10% dialyzed FBS, 0.0211 µM
[5] = HPLM + 10% dialyzed FBS, 0.0632 µM
[6] = HPLM + 10% dialyzed FBS, 0.19 µM
[7] = HPLM + 10% dialyzed FBS, 0.569 µM
[8] = HPLM + 10% dialyzed FBS, 1.71 µM
[9] = HPLM + 10% dialyzed FBS, 5.12 µM
[10] = HPLM + 10% dialyzed FBS, 15.4 µM
[11] = HPLM + 10% dialyzed FBS, 46.1 µM
[12] = RPMI 5 mM glucose + 10% FBS, 0.000781 µM
[13] = RPMI 5 mM glucose + 10% FBS, 0.00234 µM
[14] = RPMI 5 mM glucose + 10% FBS, 0.00702 µM
[15] = RPMI 5 mM glucose + 10% FBS, 0.0211 µM
[16] = RPMI 5 mM glucose + 10% FBS, 0.0632 µM
[17] = RPMI 5 mM glucose + 10% FBS, 0.19 µM
[18] = RPMI 5 mM glucose + 10% FBS, 0.569 µM
[19] = RPMI 5 mM glucose + 10% FBS, 1.71 µM
[20] = RPMI 5 mM glucose + 10% FBS, 5.12 µM
[21] = RPMI 5 mM glucose + 10% FBS, 15.4 µM
[22] = RPMI 5 mM glucose + 10% FBS, 46.1 µM
[23] = RPMI 5 mM glucose + 10% dialyzed FBS, 0.000781 µM
[24] = RPMI 5 mM glucose + 10% dialyzed FBS, 0.00234 µM
[25] = RPMI 5 mM glucose + 10% dialyzed FBS, 0.00702 µM
[26] = RPMI 5 mM glucose + 10% dialyzed FBS, 0.0211 µM
[27] = RPMI 5 mM glucose + 10% dialyzed FBS, 0.0632 µM
[28] = RPMI 5 mM glucose + 10% dialyzed FBS, 0.19 µM
[29] = RPMI 5 mM glucose + 10% dialyzed FBS, 0.569 µM
[30] = RPMI 5 mM glucose + 10% dialyzed FBS, 1.71 µM
[31] = RPMI 5 mM glucose + 10% dialyzed FBS, 5.12 µM
[32] = RPMI 5 mM glucose + 10% dialyzed FBS, 15.4 µM
[33] = RPMI 5 mM glucose + 10% dialyzed FBS, 46.1 µM

Structure (SMILES)	cell viability [1]	cell viability [2]	cell viability [3]	cell viability [4]	cell viability [5]	cell viability [6]	cell viability [7]	cell viability [8]	cell viability [9]	cell viability [10]	cell viability [11]	cell viability [12]	cell viability [13]	cell viability [14]	cell viability [15]	cell viability [16]	cell viability [17]	cell viability [18]	cell viability [19]	cell viability [20]	cell viability [21]	cell viability [22]	cell viability [23]	cell viability [24]	cell viability [25]	cell viability [26]	cell viability [27]	cell viability [28]	cell viability [29]	cell viability [30]	cell viability [31]	cell viability [32]	cell viability [33]
C[C@H]1[C@@H](C(=O)C[C@H]2O[C@@H]3O[C@]4(C)CC[C@H]5[C@H](C)CC[C@@H]([C@H]2C)[C@@]35OO4)O[C@@H]2O[C@]3(C)CC[C@H]4[C@H](C)CC[C@@H]1[C@@]24OO3	114%	121%	122%	102%	127%	115%	116%	102%	111%	67%	21%	103%	117%	102%	99.4%	110%	110%	103%	109%	105%	58.4%	24.8%	114%	131%	105%	120%	122%	107%	93.9%	95.2%	96.2%	69%	24.6%
[O-]C(=O)C1=C(C(=C(Cl)C(=C1Cl)Cl)Cl)C/2=C/3\C=C(I)/C(=O)/C(=C3OC4=C2C=C(I)C(=C4I)[O-])I	101%	136%	116%	122%	140%	129%	143%	133%	130%	113%	102%	–	–	–	–	–	–	–	–	–	–	–	–	–	–	–	–	–	–	–	–	–	–
CC1(N2CCC(n3c([C@@H]4CCCNC4)nc4ccccc43)CC2)CCCCCCC1	77.1%	100%	112%	111%	127%	116%	116%	101%	94%	45.4%	7.21%	93.6%	103%	102%	112%	108%	124%	112%	120%	109%	97.7%	53.5%	91%	108%	122%	115%	121%	104%	130%	134%	98.4%	69.4%	17.8%
NC(=O)c1cccc2cn(-c3ccc([C@@H]4CCCNC4)cc3)nc12	90.2%	97.4%	114%	103%	118%	122%	114%	111%	98.2%	117%	69%	83.5%	82.2%	100%	102%	93.8%	97.1%	91.5%	106%	103%	105%	82.2%	83.8%	111%	108%	111%	108%	122%	114%	102%	110%	118%	98.8%
COC(=O)C1C2CC3c4[nH]c5cc(OC)ccc5c4CCN3CC2CC(OC(=O)c2cc(OC)c(OC)c(OC)c2)C1OC (stereo not drawn)	108%	123%	101%	125%	119%	112%	115%	106%	112%	102%	81.3%	106%	94.6%	107%	103%	95.2%	104%	93.4%	94.1%	96.4%	95.7%	90.2%	105%	101%	103%	93.8%	92.1%	98.2%	98.5%	105%	102%	112%	82.9%
COC1=C2C[C@@H](C)C[C@H](OC)[C@H](O)[C@@H](C)/C=C(\C)[C@H](OC(N)=O)[C@@H](OC)/C=C/C=C(\C)C(=O)NC(=CC1=O)C2=O	–	–	–	–	–	–	–	–	–	–	–	108%	119%	104%	119%	109%	111%	109%	110%	101%	80.4%	4.86%	112%	111%	123%	113%	115%	114%	113%	121%	123%	81.3%	5.45%
CC[C@H](NC(=O)[C@H](C)NC)C(=O)N1C[C@@H](O)C[C@H]1Cc1c(-c2[nH]c3cc(F)ccc3c2C[C@@H]2C[C@H](O)CN2C(=O)[C@H](CC)NC(=O)[C@H](C)NC)[nH]c2cc(F)ccc12	113%	112%	123%	114%	126%	110%	89.9%	67.3%	22.6%	20.3%	21.8%	–	–	–	–	–	–	–	–	–	–	–	113%	122%	145%	150%	150%	128%	115%	106%	17.3%	16.2%	12.5%
ClC1=CC\2=C(OC3=C(C=CC=C3)\N=C2N4CCNCC4)C=C1	106%	111%	106%	94.5%	105%	103%	118%	91.1%	91.7%	83.3%	90.7%	87%	90.1%	95.9%	94.8%	88.7%	101%	100%	87.7%	86.5%	83.7%	84%	101%	84%	94.3%	91.1%	92.1%	90.7%	93.3%	90.6%	90.7%	88.4%	91.1%
CCC(=O)N[C@H]1CC[C@H](C(=O)N(C)c2ccc(-c3nc4ccccc4o3)cc2)C1	85.7%	106%	74.4%	111%	103%	92.5%	97.6%	98.2%	101%	98.5%	78.3%	95.8%	100%	89.6%	85.1%	99.4%	101%	97.4%	94.2%	86%	88.6%	96.9%	83.8%	89.2%	89.8%	87.8%	86.1%	86%	94.1%	90.4%	84.6%	81%	84.6%
